# Measured values as given in ChEMBL document CHEMBL1201862, “PubChem BioAssay data set” (2004).
#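 Cells were grown in 96-well plates and exposed to each compound for 48 hours at five concentrations; endpoints were interpolated linearly between bracketing concentrations, or set to the highest concentration if not reached. At the GI50, growth is halved.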 Calls of active or inactive are those of the source. Cut-off read from the data, not from the text of the source: active = GI50 up to about 1.1 µM and inactive = higher.
# Columns and labels:
# Experiment in all cases: NCI anticancer screen, dose series, 48 h
# Malme-3M = tested on: Malme-3M
# RPMI-8226 = tested on: RPMI-8226
# ACHN = tested on: ACHN
# LXFL 529 = tested on: LXFL 529
# HT-29 = tested on: HT-29
# HCT-15 = tested on: HCT-15
# 786-0 = tested on: 786-0
# COLO 205 = tested on: COLO 205
# NCI-H23 = tested on: NCI-H23
# OVCAR-8 = tested on: OVCAR-8
# XF498 = tested on: XF498
# K562 = tested on: K562
# TK-10 = tested on: TK-10
# UACC-62 = tested on: UACC-62
# SF-539 = tested on: SF-539
# SK-MEL-28 = tested on: SK-MEL-28
# OVCAR-3 = tested on: OVCAR-3
# MOLT-4 = tested on: MOLT-4
# M14 = tested on: M14
# SNB-75 = tested on: SNB-75
# LOX IMVI = tested on: LOX IMVI
# SNB-19 = tested on: SNB-19
# IGROV-1 = tested on: IGROV-1
# HL-60 = tested on: HL-60
# HCC 2998 = tested on: HCC 2998
# UO-31 = tested on: UO-31
# EKVX = tested on: EKVX
# SW-620 = tested on: SW-620
# SK-MEL-2 = tested on: SK-MEL-2
# SK-MEL-5 = tested on: SK-MEL-5
# HOP-62 = tested on: HOP-62
# UACC-257 = tested on: UACC-257
# A549 = tested on: A549
# SN12C = tested on: SN12C
# HCT-116 = tested on: HCT-116
# RXF 393 = tested on: RXF 393
# SR = tested on: SR
# NCI-H522 = tested on: NCI-H522
# DLD-1 = tested on: DLD-1
# KM-20L2 = tested on: KM-20L2
# OVCAR-5 = tested on: OVCAR-5
# SF-268 = tested on: SF-268
# U-251 = tested on: U-251
# M19-MEL = tested on: M19-MEL
# NCI-H460 = tested on: NCI-H460
# CCRF-CEM = tested on: CCRF-CEM
# NCI-H226 = tested on: NCI-H226
# SK-OV-3 = tested on: SK-OV-3
# KM12 = tested on: KM12
# DMS-114 = tested on: DMS-114
# HOP-92 = tested on: HOP-92
# DMS-273 = tested on: DMS-273
# SNB-78 = tested on: SNB-78
# OVCAR-4 = tested on: OVCAR-4
# SF-295 = tested on: SF-295
# A498 = tested on: A498
# HOP-18 = tested on: HOP-18
# MCF7 = tested on: MCF7
# NCI/ADR-RES = tested on: NCI/ADR-RES
structure (smiles),measurement,setting,value
O=C1OC2(OC2c2ccccc2)c2ccccc21 (stereo not given),GI50,Malme-3M,> 100 µM (inactive)
same,GI50,RPMI-8226,> 100 µM (inactive)
same,GI50,ACHN,> 100 µM (inactive)
same,GI50,LXFL 529,> 100 µM (inactive)
same,GI50,HT-29,> 100 µM (inactive)
same,GI50,HCT-15,> 100 µM
same,GI50,786-0,> 100 µM (inactive)
same,GI50,COLO 205,> 100 µM (inactive)
same,GI50,NCI-H23,> 100 µM (inactive)
same,GI50,OVCAR-8,> 100 µM (inactive)
same,GI50,XF498,> 100 µM (inactive)
same,GI50,K562,> 100 µM (inactive)
same,GI50,TK-10,> 100 µM (inactive)
same,GI50,UACC-62,> 100 µM (inactive)
same,GI50,SF-539,> 100 µM (inactive)
same,GI50,SK-MEL-28,> 100 µM (inactive)
same,GI50,OVCAR-3,> 100 µM (inactive)
same,GI50,MOLT-4,> 100 µM (inactive)
same,GI50,M14,> 100 µM (inactive)
same,GI50,SNB-75,> 100 µM (inactive)
same,GI50,LOX IMVI,> 100 µM (inactive)
same,GI50,SNB-19,> 100 µM (inactive)
same,GI50,IGROV-1,> 100 µM (inactive)
same,GI50,HL-60,> 100 µM (inactive)
same,GI50,HCC 2998,> 100 µM (inactive)
same,GI50,UO-31,> 100 µM (inactive)
same,GI50,EKVX,> 100 µM (inactive)
same,GI50,SW-620,> 100 µM (inactive)
same,GI50,SK-MEL-2,> 100 µM (inactive)
same,GI50,SK-MEL-5,> 100 µM (inactive)
same,GI50,HOP-62,> 100 µM (inactive)
same,GI50,UACC-257,> 100 µM (inactive)
same,GI50,A549,> 100 µM (inactive)
same,GI50,SN12C,> 100 µM (inactive)
same,GI50,HCT-116,5.05 µM (inactive)
same,GI50,RXF 393,> 100 µM (inactive)
same,GI50,SR,> 100 µM (inactive)
same,GI50,NCI-H522,> 100 µM (inactive)
same,GI50,DLD-1,> 100 µM (inactive)
same,GI50,KM-20L2,> 100 µM (inactive)
same,GI50,OVCAR-5,> 100 µM (inactive)
same,GI50,SF-268,> 100 µM (inactive)
same,GI50,U-251,> 100 µM (inactive)
same,GI50,M19-MEL,> 100 µM (inactive)
same,GI50,NCI-H460,> 100 µM (inactive)
same,GI50,CCRF-CEM,> 100 µM (inactive)
same,GI50,NCI-H226,> 100 µM (inactive)
same,GI50,SK-OV-3,> 100 µM (inactive)
same,GI50,KM12,> 100 µM (inactive)
same,GI50,DMS-114,1.32 µM (inactive)
same,GI50,HOP-92,> 100 µM (inactive)
same,GI50,DMS-273,> 100 µM (inactive)
OCC#CCNCl,GI50,Malme-3M,> 100 µM (inactive)
same,GI50,RPMI-8226,> 100 µM (inactive)
same,GI50,HT-29,> 28.1 µM (inactive)
same,GI50,HCT-15,> 100 µM
same,GI50,COLO 205,> 100 µM (inactive)
same,GI50,SNB-78,> 100 µM (inactive)
same,GI50,NCI-H23,> 100 µM (inactive)
same,GI50,OVCAR-8,> 100 µM (inactive)
same,GI50,XF498,> 53.1 µM (inactive)
same,GI50,K562,> 100 µM (inactive)
same,GI50,OVCAR-4,> 100 µM (inactive)
same,GI50,UACC-62,> 100 µM (inactive)
same,GI50,SF-539,> 100 µM (inactive)
same,GI50,SK-MEL-28,> 100 µM (inactive)
same,GI50,OVCAR-3,> 100 µM (inactive)
same,GI50,MOLT-4,> 100 µM (inactive)
same,GI50,SNB-75,> 100 µM (inactive)
same,GI50,LOX IMVI,> 100 µM (inactive)
same,GI50,SNB-19,> 100 µM (inactive)
same,GI50,IGROV-1,> 100 µM (inactive)
same,GI50,HL-60,> 100 µM (inactive)
same,GI50,HCC 2998,> 100 µM (inactive)
same,GI50,UO-31,> 100 µM (inactive)
same,GI50,EKVX,> 100 µM (inactive)
same,GI50,SW-620,> 100 µM (inactive)
same,GI50,SK-MEL-2,> 100 µM (inactive)
same,GI50,SF-295,> 100 µM (inactive)
same,GI50,SK-MEL-5,> 100 µM (inactive)
same,GI50,HOP-62,> 100 µM (inactive)
same,GI50,A498,> 100 µM (inactive)
same,GI50,UACC-257,> 73.6 µM (inactive)
same,GI50,HOP-18,> 100 µM (inactive)
same,GI50,A549,> 100 µM (inactive)
same,GI50,SN12C,> 100 µM (inactive)
same,GI50,HCT-116,> 100 µM (inactive)
same,GI50,RXF 393,> 100 µM (inactive)
same,GI50,NCI-H522,> 100 µM (inactive)
same,GI50,DLD-1,> 100 µM (inactive)
same,GI50,KM-20L2,> 100 µM (inactive)
same,GI50,OVCAR-5,> 100 µM (inactive)
same,GI50,SF-268,> 100 µM (inactive)
same,GI50,U-251,> 100 µM (inactive)
same,GI50,M19-MEL,> 100 µM (inactive)
same,GI50,NCI-H460,> 100 µM (inactive)
same,GI50,MCF7,> 100 µM (inactive)
same,GI50,CCRF-CEM,> 100 µM (inactive)
same,GI50,NCI-H226,> 100 µM (inactive)
same,GI50,SK-OV-3,> 100 µM (inactive)
same,GI50,KM12,> 100 µM (inactive)
same,GI50,DMS-114,> 100 µM (inactive)
same,GI50,HOP-92,> 100 µM (inactive)
same,GI50,NCI/ADR-RES,> 100 µM (inactive)
same,GI50,DMS-273,> 100 µM (inactive)
